In patent publication US20150105252A1, “SUBSTITUTED PYRAZOLES AS HERBICIDES” (E I DU PONT DE NEMOURS AND COMPANY, priority 2013, published 2015):

What was measured:
[1] = test system: goosegrass; assay: Test C postemergence; assay type: in vivo, Eleusine indica; conditions: for Goosegrass plant response rating: scale 0 to 100
Excerpt: (§1) Seeds of plant species selected from blackgrass (Alopecurus myosuroides), ryegrass, Italian (Italian ryegrass, Lolium multiflorum), wheat (winter wheat, Triticum aestivum), galium (catchweed bedstraw, Galium aparine), corn (Zea mays), crabgrass, large (large crabgrass, Digitaria sanguinalis), foxtail, giant (giant foxtail, Setaria faberii), johnsongrass (Sorghum halepense), lambsquarters (Chenopodium album), morningglory (Ipomoea coccinea), nutsedge, yellow (yellow nutsedge, Cyperus esculentus), pigweed (redroot pigweed, Amaranthus retroflexus), ragweed (common ragweed, Ambrosia elation), soybean (Glycine max), barnyardgrass (Echinochloa crus-galli), oilseed rape (Brassica napus), waterhemp (common waterhemp, Amaranthus rudis), oat, wild (wild oat, Avena fatua), kochia (Kochia scoparia), Surinam grass (Brachiaria decumbens), foxtail, green (green foxtail, Setaria viridis), goosegrass (Eleusine indica), bromegrass, downy (downy bromegrass, Bromus tectorum), nightshade (eastern black nightshade, Solanum ptycanthum), cocklebur (common cocklebur, Xanthium strumarium), cupgrass, woolly (woolly cupgrass, Eriochloa villosa), bermudagrass (Cynodon dactylon), sunflower, (common oilseed sunflower, Helianthus annuus), Russian thistle (Salsola kali), and velvetleaf (Abutilon theophrasti) were planted into a blend of loam soil and sand and treated preemergence with test chemicals formulated in a non-phytotoxic solvent mixture which included a surfactant.
(§2) At the same time, plants selected from these crop and weed species and also chickweed (common chickweed, Stellaria media), canarygrass (littleseed canarygrass, Phalaris minor), and deadnettle (henbit deadnettle, Lamium amplexicaule), were planted in pots containing Redi-Earth® planting medium (Scotts Company, 14111 Scottslawn Road, Marysville, Ohio 43041) comprising spaghnum peat moss, vermiculite, wetting agent and starter nutrients and treated with postemergence applications of test chemicals formulated in the same manner. Plants ranged in height from 2 to 18 cm (1- to 4-leaf stage) for postemergence treatments. Treated plants and controls were maintained in a greenhouse for 13 to 15 days, after which time all species were compared to controls and visually evaluated. Plant response ratings, summarized in Table C, are based on a scale of 0 to 100 where 0 is no effect and 100 is complete control. A dash (-) response means no test result.

[2] = test system: windgrass; assay: Test C postemergence; assay type: in vivo, Apera spica-venti; conditions: 125 g ai/ha, scale 0 to 100, 0 no effect, 100 complete control
[3] = test system: bromegrass, downy; assay: Test C preemergence; assay type: in vivo, Bromus tectorum; conditions: for Plant response rating (scale of 0 to 100), Bromegrass, Downy: Preemergence, 250 g ai/ha; for Bromegrass, Downy plant response rating / Plant response rating, Bromegrass, Downy: preemergence; for Plant response rating, Bromegrass, Downy: 62 g ai/ha, scale 0 to 100, 0 = no effect, 100 = complete control
Excerpt: as §1, §2

[4] = test system: deadnettle; assay: Test C postemergence; assay type: in vivo, Lamium amplexicaule; conditions: for Deadnettle plant response rating: scale 0 to 100
Excerpt: as §1, §2

[5] = test system: johnsongrass; assay: Test F preemergence; assay type: in vivo, Sorghum halepense
Excerpt: (§3) Seeds of plant species selected from corn (Zea mays), soybean (Glycine max), velvetleaf (Abutilon theophrasti), lambsquarters (Chenopodium album), wild poinsettia (Euphorbia heterophylla), pigweed, palmer (palmer pigweed, Amaranthus palmeri), common waterhemp (Amaranthus rudis), surinam grass (Brachiaria decumbens), large crabgrass (Digitaria sanguinalis), crabgrass, Brazil (Brazilian crabgrass, Digitaria horizontalis), fall panicum (Panicum dichotomiflorum), giant foxtail (Setaria faberii), green foxtail (Setaria viridis), goosegrass (Eleusine indica), johnsongrass (Sorghum halepense), common ragweed (Ambrosia elation), barnyardgrass (Echinochloa crus-galli), southern sandbur (Cenchrus echinatus), arrowleaf sida (Sida rhombifolia), Italian ryegrass (Lolium multiflorum), dayflower, VA (Virginia (VA) dayflower, Commelina virginica), field bindweed (Convolvulus arvensis), cocklebur (common cocklebur, Xanthium strumarium), morningglory (Ipomoea coccinea), nightshade (eastern black nightshade, Solanum ptycanthum), kochia (Kochia scoparia), yellow nutsedge (Cyperus esculentus), and hairy beggarticks (Bidens pilosa), were planted into a silt loam soil and treated preemergence with test chemicals formulated in a non-phytotoxic solvent mixture which included a surfactant.
(§4) At the same time, plants from these crop and weed species and also horseweed (Canada horseweed, Conyza canadensis), smartweed (ladysthumb smartweed, Polygonum persicaria), waterhemp_RES1, (ALS & Triazine resistant common waterhemp, Amaranthus rudis), and waterhemp_RES2, (ALS & HPPD resistant common waterhemp, Amaranthus rudis) were treated with postemergence applications of test chemicals formulated in the same manner. Plants ranged in height from 2 to 18 cm for postemergence treatments (1- to 4-leaf stage). Treated plants and controls were maintained in a greenhouse for 14 to 21 days, after which time all species were compared to controls and visually evaluated. Plant response ratings, summarized in Table F, are based on a scale of 0 to 100 where 0 is no effect and 100 is complete control. A dash (-) response means no test result.

[6] = test system: common ragweed; assay: Test F preemergence; assay type: in vivo, Ambrosia elation
Excerpt: as §3, §4

[7] = test system: morningglory; assay: Test F preemergence; assay type: in vivo, Ipomoea coccinea
Excerpt: as §3, §4

[8] = test system: Italian ryegrass; assay: Test A preemergence; assay type: in vivo, Lolium multiflorum
How it was run: (§5)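 Injury readout: eye-scored versus untreated controls, 0 to 100. Exposure period: ~10 days, greenhouse. Application: soil-directed spray over sown seed (pre) or spray on seedlings 2–10 cm tall with one or two leaves (post), compound carried in non-phytotoxic solvent including surfactant.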

[9] = test system: Italian ryegrass; assay: Test A postemergence; assay type: in vivo, Lolium multiflorum
How it was run: as §5

[10] = postemergence, 250 g ai/ha, scale 0 to 100 (0 no effect, 100 complete control)
[11] = postemergence, 62 g ai/ha, scale 0 to 100, 0 no effect, 100 complete control
[12] = postemergence, 125 g ai/ha, scale 0 to 100, 0 no effect, 100 complete control
[13] = 31 g ai/ha, scale 0 to 100 (0 no effect, 100 complete control), 13 to 15 days
[14] = 125 g ai/ha, scale 0 to 100, 0 is no effect, 100 is complete control
[15] = Preemergence, 31 g ai/ha, scale 0 to 100
[16] = Preemergence, 62 g ai/ha, scale 0 to 100
[17] = Preemergence, 125 g ai/ha, scale 0 to 100
[18] = preemergence, 8 g ai/ha, scale 0 to 100, 100 is complete control
[19] = preemergence, 16 g ai/ha, scale 0 to 100, 100 is complete control
[20] = 125 g ai/ha, visual injury, 0 to 100 scale, approx. 10 days
[21] = 500 g ai/ha, visual injury after approx. 10 days, 0 to 100 scale (0 no effect, 100 complete control)
[22] = Postemergence, 500 g ai/ha, 0 to 100 scale (0 no effect, 100 complete control)
[23] = postemergence, 125 g ai/ha, about 10 days, visual rating on 0 to 100 scale (0 no effect, 100 complete control)
[24] = Preemergence, 250 g ai/ha, scale 0 to 100
[25] = Preemergence, 16 g ai/ha, scale 0 to 100

CCc1cc(C(=O)NCC(F)(F)F)nn1Cc1cccc(OC(F)(F)F)c1 [Compound 20]
Goosegrass plant response rating ([1]; Postemergence, 31 g ai/ha): 0 | Plant response rating, Goosegrass [1, 10]: 15 | Plant response rating, Goosegrass [1, 11]: 5 | Plant response rating, Goosegrass [1, 12]: 5 | Plant response rating, Windgrass [2]: 40

CCCNC(=O)c1cc(CC)n(Cc2cccc(OC(F)(F)F)c2)n1 [Compound 27]
Goosegrass plant response rating ([1]; Postemergence, 31 g ai/ha): 0 | Plant response rating, Goosegrass [1, 10]: 10 | Plant response rating, Goosegrass [1, 11]: 0 | Plant response rating, Goosegrass [1, 12]: 0 | Plant response rating, Windgrass [2]: 40

CCc1cc(C(=O)NOC(C)C)nn1Cc1cccc(OC(F)(F)F)c1 [Compound 70]
Plant response rating (scale of 0 to 100), Bromegrass, Downy [3]: 80 | Bromegrass, Downy plant response rating [3, 13]: 20 | Plant response rating, Bromegrass, Downy ([3]; 13 to 15 days): 35 | Bromegrass, Downy plant response rating [3, 14]: 40 | Goosegrass plant response rating ([1]; Postemergence, 31 g ai/ha): 5 | Plant response rating, Goosegrass [1, 10]: 15 | Plant response rating, Goosegrass [1, 11]: 5 | Plant response rating, Goosegrass [1, 12]: 10 | Deadnettle plant response rating ([4]; Postemergence, 31 g ai/ha): 25 | Plant response rating, Deadnettle [4, 10]: 90 | Plant response rating, Deadnettle [4, 11]: 70 | Plant response rating, Deadnettle [4, 12]: 70 | Plant response rating, Windgrass [2]: 50

CCONC(=O)c1cc(CC)n(Cc2cccc(OC(F)(F)F)c2)n1 [Compound 72]
Plant response rating (scale of 0 to 100), Bromegrass, Downy [3]: 90 | Bromegrass, Downy plant response rating [3, 13]: 5 | Plant response rating, Bromegrass, Downy ([3]; 13 to 15 days): 45 | Bromegrass, Downy plant response rating [3, 14]: 80 | Goosegrass plant response rating ([1]; Postemergence, 31 g ai/ha): 0 | Goosegrass plant response rating ([1]; postemergence, 62 g ai/ha): 0 | Plant response rating, Goosegrass [1, 10]: 5 | Plant response rating, Goosegrass [1, 12]: 0 | Deadnettle plant response rating ([4]; Postemergence, 31 g ai/ha): 40 | Deadnettle plant response rating ([4]; postemergence, 62 g ai/ha): 40 | Plant response rating, Deadnettle [4, 10]: 70 | Plant response rating, Deadnettle [4, 12]: 40 | Plant response rating, Windgrass [2]: 25

Cc1cc(C(=O)NCC(F)(F)F)nn1Cc1ccnc(C(F)(F)F)c1 [Compound 74]
Plant response rating (scale of 0 to 100), Bromegrass, Downy [3]: 95 | Bromegrass, Downy plant response rating [3, 13]: 0 | Plant response rating, Bromegrass, Downy ([3]; 13 to 15 days): 5 | Bromegrass, Downy plant response rating [3, 14]: 50 | Goosegrass plant response rating ([1]; Postemergence, 31 g ai/ha): 5 | Goosegrass plant response rating ([1]; postemergence, 62 g ai/ha): 5 | Plant response rating, Goosegrass [1, 10]: 10 | Plant response rating, Goosegrass [1, 12]: 5 | Deadnettle plant response rating ([4]; Postemergence, 31 g ai/ha): 10 | Deadnettle plant response rating ([4]; postemergence, 62 g ai/ha): 60 | Plant response rating, Deadnettle [4, 10]: 80 | Plant response rating, Deadnettle [4, 12]: 70 | Plant response rating, Windgrass [2]: 0

CCc1cc(-c2ccc(C(F)(F)F)cc2)nn1Cc1ccnc(C(F)(F)F)c1 [Compound 110]
Plant response rating, Johnsongrass [5, 15]: 15 | Plant response rating, Johnsongrass [5, 16]: 25 | Plant response rating, Johnsongrass [5, 17]: 80 | Plant response rating, Johnsongrass [5, 18]: 0 | Plant response rating, Johnsongrass [5, 19]: 0 | Plant response rating, Common Ragweed [6, 15]: 25 | Plant response rating, Common Ragweed [6, 16]: 80 | Plant response rating, Common Ragweed [6, 17]: 90 | Plant response rating, Common Ragweed [6, 18]: 0 | Plant response rating, Common Ragweed [6, 19]: 0 | Plant response rating, Morningglory [7, 15]: 10 | Plant response rating, Morningglory [7, 16]: 10 | Plant response rating, Morningglory [7, 17]: 60 | Plant response rating, Morningglory [7, 18]: 0 | Plant response rating, Morningglory [7, 19]: 20

CCc1cc(C(=O)NOC(C)C)nn1Cc1ccnc(OC(F)F)c1 [Compound 126]
Italian Ryegrass plant response rating [8, 20]: 90 | Italian Ryegrass plant response rating [8, 21]: 100 | Italian Ryegrass plant response rating [9, 22]: 100 | Italian Ryegrass plant response rating [9, 23]: 90

CCCc1cc(C(=O)NCC(F)(F)F)nn1Cc1ccnc(OC(F)F)c1 [Compound 127]
Italian Ryegrass plant response rating [8, 20]: 40 | Italian Ryegrass plant response rating [8, 21]: 90 | Italian Ryegrass plant response rating [9, 22]: 90 | Italian Ryegrass plant response rating [9, 23]: 80

CCOc1cc(C(=O)NCC(F)(F)F)nn1Cc1ccnc(OC(F)F)c1 [Compound 128]
Italian Ryegrass plant response rating [8, 20]: 30 | Italian Ryegrass plant response rating [8, 21]: 100 | Italian Ryegrass plant response rating [9, 22]: 100 | Italian Ryegrass plant response rating [9, 23]: 90

CCCNC(=O)c1cc(OCC)n(Cc2ccnc(OC(F)F)c2)n1 [Compound 136]
Italian Ryegrass plant response rating [8, 20]: 30 | Italian Ryegrass plant response rating [8, 21]: 100 | Italian Ryegrass plant response rating [9, 22]: 90 | Italian Ryegrass plant response rating [9, 23]: 80

CCCc1cc(C(=O)NC(C)C)nn1Cc1cc(C(F)(F)F)nn1C [Compound 201]
Plant response rating, Johnsongrass [5, 16]: 25 | Plant response rating, Johnsongrass [5, 17]: 80 | Plant response rating, Johnsongrass [5, 24]: 95 | Plant response rating, Johnsongrass [5, 19]: 0 | Plant response rating, Common Ragweed [6, 25]: 0 | Plant response rating, Common Ragweed [6, 16]: 0 | Plant response rating, Common Ragweed [6, 17]: 35 | Plant response rating, Common Ragweed [6, 24]: 65 | Plant response rating, Common Ragweed [6, 19]: 0 | Plant response rating, Morningglory [7, 25]: 0 | Plant response rating, Morningglory [7, 16]: 25 | Plant response rating, Morningglory [7, 17]: 65 | Plant response rating, Morningglory [7, 24]: 80 | Plant response rating, Morningglory [7, 19]: 0

CCCc1cc(C(=O)NC2CC2)nn1Cc1ccnc(OC(F)F)c1 [Compound 205]
Italian Ryegrass plant response rating (0 to 100 scale) ([8]; 125 g ai/ha, visual injury approx. 10 days after treatment): 50 | Italian Ryegrass plant response rating [8, 21]: 100 | Italian Ryegrass plant response rating ([9]; Postemergence, 125 g ai/ha, 0 to 100 scale, 0 no effect, 100 complete control): 70 | Italian Ryegrass plant response rating [9, 22]: 100

CCc1cc(C(=O)NCC(F)(F)F)nn1Cc1ccnc(Br)c1 [Compound 224]
Plant response rating, Johnsongrass [5, 16]: 0 | Plant response rating, Johnsongrass [5, 17]: 35 | Plant response rating, Johnsongrass [5, 24]: 75 | Plant response rating, Common Ragweed [6, 16]: 0 | Plant response rating, Common Ragweed [6, 17]: 0 | Plant response rating, Common Ragweed [6, 24]: 60 | Plant response rating, Morningglory [7, 16]: 0 | Plant response rating, Morningglory [7, 17]: 0 | Plant response rating, Morningglory [7, 24]: 25
